Legend:
[1] = test system: Table apple, type Boiken apple (C1); test: Greenhouse test, cut apple branches C1 dipped in test solution, bud development stage; assay type: in vivo, Malus domestica; set-up: key to Bud development stage, apple branches C1: Stage 0: Buds unchanged; Stage 1: Buds slightly swollen, first green tips visible; Stage 2: strongly swollen, green buds; Stage 3: Buds before breaking open, leaf or flower root already visible; Stage 4: Flower buds fully developed, but still closed, white petals already visible. In the case of the grapevine, stage 4 was the unfolding of the first leaves; Stage 5: Flowers fully open or, in the case of grapevine, unfolding of the flower roots (“Gescheine”) on the fully leafed sprouts; details: for Good to very good dormancy-breaking effect, apple C1: stage 4 reached or exceeded after 27 days vs negative control; for Dormancy-breaking effect according to the definition, apple C1: stage 4 reached or exceeded after 36 days vs negative control
Method in brief: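 Cut Boiken apple branches kept in water jars in a greenhouse at about 22 °C under natural light and dipped in test solution. Solutions contained 0.15 mol test substance (0.075 mol for bis-cyanamides) plus 0.15 g BreakThru OE-446 per 500 g water. Bud development scored on a stage scale up to full flowering.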

[2] = test system: Table apple, type Zabergäu-Renette (C2); test: Greenhouse test, cut apple branches C2 dipped in test solution, bud development stage; assay type: in vivo, Malus domestica; set-up: key to Bud development stage, apple branches C2: Stage 0: Buds unchanged; Stage 1: Buds slightly swollen, first green tips visible; Stage 2: strongly swollen, green buds; Stage 3: Buds before breaking open, leaf or flower root already visible; Stage 4: Flower buds fully developed, but still closed, white petals already visible. In the case of the grapevine, stage 4 was the unfolding of the first leaves; Stage 5: Flowers fully open or, in the case of grapevine, unfolding of the flower roots (“Gescheine”) on the fully leafed sprouts; details: for Dormancy-breaking effect according to the definition, apple C2: stage 4 reached or exceeded after 36 days vs negative control
Method in brief: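 Cut branches held in water jars in a greenhouse at about 22° C. under natural light after dipping in aqueous test solution: 0.15 mol substance (0.075 mol for bis-cyanamides) plus 0.15 g BreakThru OE-446 per 500 g. Bud development scored on a stage scale from closed buds to fully open flowers.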

[3] = test system: Table cherry, type Burlat (C3); test: Greenhouse test, cut cherry branches C3 dipped in test solution, bud development stage; assay type: in vivo, Prunus avium; set-up: key to Bud development stage, cherry branches C3: Stage 0: Buds unchanged; Stage 1: Buds slightly swollen, first green tips visible; Stage 2: strongly swollen, green buds; Stage 3: Buds before breaking open, leaf or flower root already visible; Stage 4: Flower buds fully developed, but still closed, white petals already visible. In the case of the grapevine, stage 4 was the unfolding of the first leaves; Stage 5: Flowers fully open or, in the case of grapevine, unfolding of the flower roots (“Gescheine”) on the fully leafed sprouts
Method in brief: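 Cut branches kept in water jars in a greenhouse at about 22° C. under natural light after dipping in aqueous solution of 0.15 mol test substance (0.075 mol for bis-cyanamides) plus 0.15 g BreakThru OE-446 per 500 g. Bud development scored on a stage scale from closed buds to fully open flowers.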

[4] = test system: Grape, type Pinot Noir (C4); test: Greenhouse test, cut wine sprouts C4 dipped in test solution, bud development stage; assay type: in vivo, Vitis vinifera subsp. vinifera; set-up: key to Bud development stage, wine sprouts C4: Stage 0: Buds unchanged; Stage 1: Buds slightly swollen, first green tips visible; Stage 2: strongly swollen, green buds; Stage 3: Buds before breaking open, leaf or flower root already visible; Stage 4: Flower buds fully developed, but still closed, white petals already visible. In the case of the grapevine, stage 4 was the unfolding of the first leaves; Stage 5: Flowers fully open or, in the case of grapevine, unfolding of the flower roots (“Gescheine”) on the fully leafed sprouts; details: for Dormancy-breaking effect according to the definition, wine C4: stage 4 reached or exceeded after 36 days vs negative control
Method in brief: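 Cut Pinot Noir grapevine sprouts were dipped in aqueous test solution (0.15 mol test substance, or 0.075 mol for bis-cyanamides, plus 0.15 g BreakThru OE-446 per 500 g total) and kept in water jars at about 22° C under natural light. Bud development was scored on a staged scale from closed buds to fully open flowers.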

[5] = T1 (14 d), 0.15 mol (A-14, A-15: 0.075 mol) per 500 g solution
[6] = stage 4 reached or exceeded after 27 days vs negative control

CCC(=O)NC#N.[Na] [Example A-5, Sodium propionyl cyanamide]
Bud development stage, apple branches C1 [1, 5]: 2
Bud development stage, apple branches C1 ([1]; T2 (16 d)): 2
Bud development stage, apple branches C1 ([1]; T3 (21 d)): 4
Bud development stage, apple branches C1 ([1]; T4 (27 d)): 5
Bud development stage, apple branches C1 ([1]; T5 (36 d)): 5
Bud development stage, apple branches C1 ([1]; T6 (56 d)): 5
Good to very good dormancy-breaking effect, apple C1 [1]: good to very good dormancy-breaking effect
Dormancy-breaking effect according to the definition, apple C1 [1]: dormancy-breaking effect
Bud development stage, apple branches C2 [2, 5]: 0
Bud development stage, apple branches C2 ([2]; T2 (16 d)): 0
Bud development stage, apple branches C2 ([2]; T3 (21 d)): 0
Bud development stage, apple branches C2 ([2]; T4 (27 d)): 1
Bud development stage, apple branches C2 ([2]; T5 (36 d)): 3
Bud development stage, apple branches C2 ([2]; T6 (56 d)): 4
Bud development stage, cherry branches C3 [3, 5]: 1
Bud development stage, cherry branches C3 ([3]; T2 (16 d)): 2
Bud development stage, cherry branches C3 ([3]; T3 (21 d)): 4
Bud development stage, cherry branches C3 ([3]; T4 (27 d)): 4
Bud development stage, cherry branches C3 ([3]; T5 (36 d)): 4
Bud development stage, cherry branches C3 ([3]; T6 (56 d)): 5
Good to very good dormancy-breaking effect, cherry C3 ([3]; stage 4 reached or exceeded after 21 days vs negative control): good to very good dormancy-breaking effect
Dormancy-breaking effect according to the definition, cherry C3 [3, 6]: dormancy-breaking effect
Bud development stage, wine sprouts C4 [4, 5]: 0
Bud development stage, wine sprouts C4 ([4]; T2 (16 d)): 0
Bud development stage, wine sprouts C4 ([4]; T3 (21 d)): 0
Bud development stage, wine sprouts C4 ([4]; T4 (27 d)): 1
Bud development stage, wine sprouts C4 ([4]; T5 (36 d)): 3
Bud development stage, wine sprouts C4 ([4]; T6 (56 d)): 5
melting point: 143 °C (dec.)

CC(C)C(=O)NC#N.[Na] [Example A-7, Sodium isobutyryl cyanamide]
Bud development stage, apple branches C1 [1, 5]: 2
Bud development stage, apple branches C1 ([1]; T2 (16 d)): 3
Bud development stage, apple branches C1 ([1]; T3 (21 d)): 4
Bud development stage, apple branches C1 ([1]; T4 (27 d)): 5
Bud development stage, apple branches C1 ([1]; T5 (36 d)): 5
Bud development stage, apple branches C1 ([1]; T6 (56 d)): 5
Good to very good dormancy-breaking effect, apple C1 [1]: good to very good dormancy-breaking effect
Dormancy-breaking effect according to the definition, apple C1 [1]: dormancy-breaking effect
Bud development stage, apple branches C2 [2, 5]: 0
Bud development stage, apple branches C2 ([2]; T2 (16 d)): 0
Bud development stage, apple branches C2 ([2]; T3 (21 d)): 1
Bud development stage, apple branches C2 ([2]; T4 (27 d)): 1
Bud development stage, apple branches C2 ([2]; T5 (36 d)): 5
Bud development stage, apple branches C2 ([2]; T6 (56 d)): 5
Dormancy-breaking effect according to the definition, apple C2 [2]: dormancy-breaking effect
Bud development stage, cherry branches C3 [3, 5]: 0
Bud development stage, cherry branches C3 ([3]; T2 (16 d)): 0
Bud development stage, cherry branches C3 ([3]; T3 (21 d)): 1
Bud development stage, cherry branches C3 ([3]; T4 (27 d)): 2
Bud development stage, cherry branches C3 ([3]; T5 (36 d)): 4
Bud development stage, cherry branches C3 ([3]; T6 (56 d)): 5
Bud development stage, wine sprouts C4 [4, 5]: 0
Bud development stage, wine sprouts C4 ([4]; T2 (16 d)): 0
Bud development stage, wine sprouts C4 ([4]; T3 (21 d)): 0
Bud development stage, wine sprouts C4 ([4]; T4 (27 d)): 2
Bud development stage, wine sprouts C4 ([4]; T5 (36 d)): 5
Bud development stage, wine sprouts C4 ([4]; T6 (56 d)): 5
Dormancy-breaking effect according to the definition, wine C4 [4]: dormancy-breaking effect
melting point: 127 to 133 °C

Cc1ccc(C(=O)NC#N)cc1.[Na] [Example A-13, Sodium-4-methyl-benzoyl-cyanamide]
Bud development stage, apple branches C1 [1, 5]: 0
Bud development stage, apple branches C1 ([1]; T2 (16 d)): 0
Bud development stage, apple branches C1 ([1]; T3 (21 d)): 0
Bud development stage, apple branches C1 ([1]; T4 (27 d)): 1
Bud development stage, apple branches C1 ([1]; T5 (36 d)): 4
Bud development stage, apple branches C1 ([1]; T6 (56 d)): 4
Dormancy-breaking effect according to the definition, apple C1 [1]: dormancy-breaking effect
Bud development stage, apple branches C2 [2, 5]: 0
Bud development stage, apple branches C2 ([2]; T2 (16 d)): 0
Bud development stage, apple branches C2 ([2]; T3 (21 d)): 1
Bud development stage, apple branches C2 ([2]; T4 (27 d)): 3
Bud development stage, apple branches C2 ([2]; T5 (36 d)): 3
Bud development stage, apple branches C2 ([2]; T6 (56 d)): 5
Bud development stage, cherry branches C3 [3, 5]: 0
Bud development stage, cherry branches C3 ([3]; T2 (16 d)): 0
Bud development stage, cherry branches C3 ([3]; T3 (21 d)): 0
Bud development stage, cherry branches C3 ([3]; T4 (27 d)): 1
Bud development stage, cherry branches C3 ([3]; T5 (36 d)): 2
Bud development stage, cherry branches C3 ([3]; T6 (56 d)): 5
Bud development stage, wine sprouts C4 [4, 5]: 0
Bud development stage, wine sprouts C4 ([4]; T2 (16 d)): 0
Bud development stage, wine sprouts C4 ([4]; T3 (21 d)): 0
Bud development stage, wine sprouts C4 ([4]; T4 (27 d)): 1
Bud development stage, wine sprouts C4 ([4]; T5 (36 d)): 3
Bud development stage, wine sprouts C4 ([4]; T6 (56 d)): 5
melting point: 340 °C (dec.)

N#CNC(=O)CCCCC(=O)NC#N.[Na].[Na] [Example A-15, Disodium-(5-(cyano-amidocarbonyl)-pentanoyl-cyanamide)]
Bud development stage, apple branches C1 [1, 5]: 0
Bud development stage, apple branches C1 ([1]; T2 (16 d)): 0
Bud development stage, apple branches C1 ([1]; T3 (21 d)): 1
Bud development stage, apple branches C1 ([1]; T4 (27 d)): 2
Bud development stage, apple branches C1 ([1]; T5 (36 d)): 3
Bud development stage, apple branches C1 ([1]; T6 (56 d)): 4
Bud development stage, apple branches C2 [2, 5]: 0
Bud development stage, apple branches C2 ([2]; T2 (16 d)): 0
Bud development stage, apple branches C2 ([2]; T3 (21 d)): 1
Bud development stage, apple branches C2 ([2]; T4 (27 d)): 5
Bud development stage, apple branches C2 ([2]; T5 (36 d)): 5
Bud development stage, apple branches C2 ([2]; T6 (56 d)): 5
Good to very good dormancy-breaking effect, apple C2 [2, 6]: good to very good dormancy-breaking effect
Dormancy-breaking effect according to the definition, apple C2 [2]: dormancy-breaking effect
Bud development stage, cherry branches C3 [3, 5]: 0
Bud development stage, cherry branches C3 ([3]; T2 (16 d)): 1
Bud development stage, cherry branches C3 ([3]; T3 (21 d)): 1
Bud development stage, cherry branches C3 ([3]; T4 (27 d)): 1
Bud development stage, cherry branches C3 ([3]; T5 (36 d)): 2
Bud development stage, cherry branches C3 ([3]; T6 (56 d)): 4
Bud development stage, wine sprouts C4 [4, 5]: 0
Bud development stage, wine sprouts C4 ([4]; T2 (16 d)): 0
Bud development stage, wine sprouts C4 ([4]; T3 (21 d)): 0
Bud development stage, wine sprouts C4 ([4]; T4 (27 d)): 1
Bud development stage, wine sprouts C4 ([4]; T5 (36 d)): 4
Bud development stage, wine sprouts C4 ([4]; T6 (56 d)): 5
Dormancy-breaking effect according to the definition, wine C4 [4]: dormancy-breaking effect

N#CN [cyanamide]
Bud development stage, apple branches C1 [1, 5]: 3
Bud development stage, apple branches C1 ([1]; T2 (16 d)): 4
Bud development stage, apple branches C1 ([1]; T3 (21 d)): 5
Bud development stage, apple branches C1 ([1]; T4 (27 d)): 5
Bud development stage, apple branches C1 ([1]; T5 (36 d)): 5
Bud development stage, apple branches C1 ([1]; T6 (56 d)): 5
Bud development stage, apple branches C2 [2, 5]: 0
Bud development stage, apple branches C2 ([2]; T2 (16 d)): 0
Bud development stage, apple branches C2 ([2]; T3 (21 d)): 3
Bud development stage, apple branches C2 ([2]; T4 (27 d)): 4
Bud development stage, apple branches C2 ([2]; T5 (36 d)): 5
Bud development stage, apple branches C2 ([2]; T6 (56 d)): 5
Bud development stage, cherry branches C3 [3, 5]: 2
Bud development stage, cherry branches C3 ([3]; T2 (16 d)): 4
Bud development stage, cherry branches C3 ([3]; T3 (21 d)): 5
Bud development stage, cherry branches C3 ([3]; T4 (27 d)): 5
Bud development stage, cherry branches C3 ([3]; T5 (36 d)): 5
Bud development stage, cherry branches C3 ([3]; T6 (56 d)): 5
Bud development stage, wine sprouts C4 [4, 5]: 0
Bud development stage, wine sprouts C4 ([4]; T2 (16 d)): 0
Bud development stage, wine sprouts C4 ([4]; T3 (21 d)): 2
Bud development stage, wine sprouts C4 ([4]; T4 (27 d)): 5
Bud development stage, wine sprouts C4 ([4]; T5 (36 d)): 5
Bud development stage, wine sprouts C4 ([4]; T6 (56 d)): 5
